# Assay: electrical properties (dielectric constant, dielectric loss, volume resistivity)
# Type: physicochemical
# [1] = Table 5, Example 6, temperature not given
substance,measurement,setting,value
"n-octyl-( 3,3,3-trifluoropropyl)benzene [n-octyl(3,3,3-trifluoropropyl)benzene]",Dielectric constant,[1],4.18
same,Dielectric loss (tanδ),[1],0.095%
same,Volume resistivity,[1],1.08 × 10^14 Ω·cm
same,Dielectric constant,"Table 6, Example 7, at 20° C.",3.89
same,Dielectric loss (tanδ),"Table 6, Example 7, at 20° C.",0.015%
same,Volume resistivity,"Table 6, Example 7, at 20° C.",8.79 × 10^14 Ω·cm

# — patent publication US4476328A, “Process for producing 3,3,3-trifluoropropyl substituted phenol” (Kureha Kagaku Kogyo Kabushiki Kaisha, priority 1980, dated 1984)
